Measurements reported in paper PMC6770581, “New Thalidomide-Resembling Dicarboximides Target ABC50 Protein and Show Antileukemic and Immunomodulatory Activities” (Biomolecules, 2019).

Experiments:
[1] = test system: HeLa cells; test: MTT cytotoxicity assay, HeLa; type: cell-based; details: Homo sapiens, 48 h, mean ± SD
Method: (§1) Human umbilical vein endothelial cells (purchased from Life Technologies, Carlsbad, CA, USA) were cultured according to the manufacturer’s instructions in Medium 200 supplemented with Low Serum Growth Supplement. 1 × 10^4 cells were seeded on each well on a 96-well plate (Nunc, Roskilde, Denmark). The HeLa (human cervix carcinoma, cat. #93021013), CFPAC (human pancreatic adenocarcinoma, cat. #91112501), K562 (chronic myelogenous leukemia, cat. #89121407), HL-60 (acute myelogenous leukemia, cat. #98070106), and MOLT-4 (Human acute T lymphoblastic leukemia, cat. #85011413) cells were purchased from European Collection of Authenticated Cell Cultures (ECACC). They were cultured in an RPMI 1640 medium supplemented with antibiotics (streptomycin, penicillin) and 10% fetal calf serum (20% for HL60), in a 5% CO2-95% air atmosphere. 7 × 10^3 cells were seeded on each well on a 96-well plate (Nunc). 24 hours later the cells were exposed to the test compounds. The aliquots of stock solutions of the test compounds (freshly prepared in DMSO) were added to the cell cultures to yield final concentrations of 1, 10^−1, 10^−2, 10^−3, 10^−4, and 10^−5 mM. The concentration of DMSO in the cell culture medium was 1%. The IC50 value (the concentration of a test compound required to reduce the cell survival fraction to 50% of the control) was calculated from a dose-response curve and used as a measure of cellular sensitivity to a given treatment. The IC50 values are given as means (± standard deviation (SD)) from 2 independent experiments with 4 technical replicates. The cytotoxicity of all compounds was determined by the MTT (3-(4,5-dimethylthiazol-2-yl)-2,5-diphenyltetrazolium bromide) assay (Sigma, St. Louis, MO, USA). Briefly, after 24 h or 48 h of incubation with a given compound, the cells were treated with the MTT reagent and incubation was continued for 2 h. MTT-formazan crystals were dissolved in 20% SDS and 50% DMF at pH 4.7 and VIS light absorption was measured at 570 and 650 nm on a microplate reader FLUOstar Omega (BMG Labtech, Offenburg, Germany). As a control (100% viability), cells grown in the presence of 1% DMSO were used.

[2] = test system: K562 cells; test: MTT cytotoxicity assay, K562; type: cell-based; details: Homo sapiens, 48 h, mean ± SD
Method: as §1

[3] = test system: HUVEC (human umbilical vein endothelial cells); test: MTT cytotoxicity assay, HUVEC; type: cell-based; details: 48 h, mean ± SD
Method: as §1

[4] = test system: MOLT-4 cells; test: MTT cytotoxicity assay, MOLT-4; type: cell-based; details: Homo sapiens, 48 h, mean ± SD
Method: as §1

[5] = target: T1, ABC50 (Homo sapiens, UniProt Q8NE71); test: ABC50 level by Western blotting in HeLa cells (PROTAC approach); type: cell-based; parameters: endogenous in cells; details: 96 h, 7 (30 µM), 8 (15 µM), 9 (30 µM)
T1 sequence (Q8NE71 whole entry): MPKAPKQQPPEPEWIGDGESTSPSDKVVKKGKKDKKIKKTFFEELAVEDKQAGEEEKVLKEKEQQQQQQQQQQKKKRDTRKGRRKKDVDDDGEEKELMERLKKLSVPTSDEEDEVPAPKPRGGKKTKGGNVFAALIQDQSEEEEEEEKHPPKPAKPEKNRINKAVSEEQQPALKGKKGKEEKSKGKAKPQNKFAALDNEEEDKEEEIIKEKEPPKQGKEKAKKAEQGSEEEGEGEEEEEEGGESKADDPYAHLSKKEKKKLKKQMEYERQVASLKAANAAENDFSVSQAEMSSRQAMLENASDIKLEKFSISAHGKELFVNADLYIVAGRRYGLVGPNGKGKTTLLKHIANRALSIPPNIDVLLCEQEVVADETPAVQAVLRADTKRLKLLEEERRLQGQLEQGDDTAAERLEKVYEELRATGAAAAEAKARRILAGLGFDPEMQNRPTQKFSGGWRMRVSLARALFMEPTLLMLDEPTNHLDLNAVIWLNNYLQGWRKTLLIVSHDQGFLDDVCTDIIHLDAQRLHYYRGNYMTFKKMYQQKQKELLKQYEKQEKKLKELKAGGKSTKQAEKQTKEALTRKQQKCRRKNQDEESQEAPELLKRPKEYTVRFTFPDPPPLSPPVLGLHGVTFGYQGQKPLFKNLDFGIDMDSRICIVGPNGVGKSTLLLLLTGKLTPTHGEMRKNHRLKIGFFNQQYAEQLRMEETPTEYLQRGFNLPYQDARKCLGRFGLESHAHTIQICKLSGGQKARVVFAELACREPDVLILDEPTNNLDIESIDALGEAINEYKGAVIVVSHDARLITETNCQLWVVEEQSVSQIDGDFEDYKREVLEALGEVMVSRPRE
Method: (§2) Cells were lysed in TBS buffer containing 1% Triton X-100 and Complete® protease inhibitor cocktail (Roche) for 15 min on ice with occasional vortexing. Insoluble material was centrifuged (12,000 rpm, 15 min, 4 °C) and supernatants were collected. Total protein concentration was measured with DC Protein Assay (Bio-Rad, Hercules, CA, USA). Cell lysates containing 30 µg of total protein were mixed with Laemli buffer supplemented with SDS and β-mercaptoethanol, denatured (10 min, 95 °C) and subjected to sodium dodecyl sulfate polyacrylamide gel electrophoresis (SDS-PAGE) electrophoresis (4% stacking and 10% resolving gels). Resolved proteins were electrotransferred (semi-dry, 90 min, 1.5 mA/cm^2) to a 0.45 µm nitrocellulose membrane (Thermo Scientific, Waltham, MA, USA). Membranes were blocked for 2 hours in TBST buffer (20 mM Tris-HCl pH 7.5, 0.9% NaCl, 0.1% Tween 20) containing 5% BSA (BioShop, Burlington, ON, Canada) and probed with primary antibodies (overnight at 4 °C) diluted in TBST buffer with 0.5% BSA. Tubulin served as a loading control for IB experiments. Anti IKZF3 (rabbit monoclonal, dilution 1:500), anti IKZF1 (rabbit polyclonal, dilution 1:500) were from Abcam. Anti IRF4 (rabbit polyclonal, dilution 1:500) were from Cell Signaling Technology. Anti α-tubulin (mouse monoclonal IgG, 1:1000) was from Sigma Aldrich. Anti ABC50 antibodies (mouse monoclonal ABC5H06, dilution 1:100) was from Abcam. After extensive washing with TBST buffer, membranes were probed with secondary goat anti-rabbit or goat anti-mouse HRP-conjugated IgG (1:5000 in TBST, Santa Cruz Biotech, Dallas, TX, USA) for 45 min at room temperature. […] Protein bands intensities were analysed using Image Quant (version 5.0, GE Healthcare Life Sciences, Pittsburgh, PA, USA).
(§3) ABC50 was identified as the target of the test dicarboximides in the pull-down experiments. […] It must be noted that 7, 8 and 9 were evaluated as mixtures of enantiomers. K562 and HeLa cells were incubated with chimeras 7 (30 µM), 8 (15 µM) and 9 (30 µM) for 96 h and subsequently the level of ABC50 was determined by Western blotting. […]

[6] = target: T1, ABC50; test: ABC50 level by Western blotting in K562 cells (PROTAC approach); type: cell-based; parameters: endogenous in cells; host or cells: K562 cell lysate; details: K562, 96 h, 7 (30 µM), 8 (15 µM), 9 (30 µM)
Method: as §2, §3

| melting point [°C] | level of ABC50 (Western blotting) [5] | level of ABC50 (Western blotting) [6] | SMILES | IC50 [1] [µM] | IC50 [2] [µM] | IC50 [3] [µM] | IC50 [4] [µM] |
| --- | --- | --- | --- | --- | --- | --- | --- |
| 232 to 234 | significantly downregulated | significantly reduced | CCC12C(=O)C(CC)(C(c3ccccc3)=C1c1ccccc1)C1C(=O)N(C3CCC(=O)NC3=O)C(=O)C12 (stereo not drawn) [Compound 8, 4-(2,6-dioxopiperidin-3-yl)-1,7-diethyl-8,9-diphenyl-4-azatricyclo[5.2.1.0^2,6]dec-8-ene-3,5,10-trione] | > 200 | 25 | 65 | 18 |
| 217 to 218 | significantly downregulated | significantly reduced | CC12C(=O)C(C)(C(c3ccccc3)=C1c1ccccc1)C1C(=O)N(C3CCC(=O)NC3=O)C(=O)C12 (stereo not drawn) [Compound 7, 4-(2,6-dioxopiperidin-3-yl)-1,7-dimethyl-8,9-diphenyl-4-azatricyclo[5.2.1.0^2,6]dec-8-ene-3,5,10-trione] | 180 | 170 | 200 | 150 |
| 230 to 232 | didn’t have such pronounced effect | significantly reduced | O=C1CCC(N2C(=O)C3C(C2=O)C2(c4ccccc4)C(=O)C3(c3ccccc3)C(c3ccccc3)=C2c2ccccc2)C(=O)N1 (stereo not drawn) [Compound 9, 4-(2,6-dioxopiperidin-3-yl)-1,7,8,9-tetraphenyl-4-azatricyclo[5.2.1.0^2,6]dec-8-ene-3,5,10-trione] | > 200 | > 200 | > 200 | > 200 |
